{"source": "patent US20110250184A1", "about": "“METHODS FOR DETERMINING EFFICACY OF A THERAPEUTIC REGIMEN AGAINST DELETERIOUS EFFECTS OF CYTOTOXIC AGENTS IN HUMAN” (priority 2008, published 2011)", "key": {"[1]": {"target": "CYP450 2C9 (Homo sapiens, UniProt P11712)", "sequence (P11712 whole entry)": "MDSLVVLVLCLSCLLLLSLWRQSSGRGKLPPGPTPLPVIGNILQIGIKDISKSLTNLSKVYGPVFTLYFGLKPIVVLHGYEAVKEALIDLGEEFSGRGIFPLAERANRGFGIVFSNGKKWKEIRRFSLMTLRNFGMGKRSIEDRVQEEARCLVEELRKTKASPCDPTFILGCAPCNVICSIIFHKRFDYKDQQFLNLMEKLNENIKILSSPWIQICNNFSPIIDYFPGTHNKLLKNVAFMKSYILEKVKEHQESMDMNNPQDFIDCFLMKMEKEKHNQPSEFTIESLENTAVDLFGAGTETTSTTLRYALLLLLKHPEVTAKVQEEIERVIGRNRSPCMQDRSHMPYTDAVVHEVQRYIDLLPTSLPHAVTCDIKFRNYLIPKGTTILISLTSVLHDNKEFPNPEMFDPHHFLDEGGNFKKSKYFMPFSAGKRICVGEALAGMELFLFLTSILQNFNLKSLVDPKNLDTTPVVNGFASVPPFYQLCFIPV", "assay_type": "in vitro ADME", "method": "Additional biochemical studies were performed to screen for potential secondary or non-specific activities. ON 01210.Na was subjected to in vitro primary screening across a broad panel of 67 radioligand receptor binding assays and five cytochrome P450 enzymes: 1A2, 2C9, 2C19, 3A4, and 2D6. […] Only one cytochrome assay, CYP450 2C9, in which the activity was […] 98%, yielded a response that was considered significant. Thus, as a preliminary screen for safety and selectivity profiling, no targets were identified."}, "[2]": {"system": "p53, p21, bax, c-abl and p73", "assay": "Protein levels in cells in response to radiation exposure", "assay_type": "cell-based", "excerpt": "This reduction could be instrumental in decreased cell death and increased cell recovery in ON 01210.Na pretreated irradiated cells."}}}
{"compound": "O=C([O-])c1ccc(/C=C/S(=O)(=O)Cc2ccc(Cl)cc2)cc1.[Na+]", "note": "[ON 01210.Na, E-4-Carboxystyryl-4-chlorobenzylsulfone sodium salt]", "values": [{"measurement": "CYP450 2C9 activity, stimulation", "setting": "[1]", "result": 98, "unit": "%"}, {"measurement": "protein level of bax", "setting": "[2]", "result": "significantly reduce"}, {"measurement": "protein level of c-abl", "setting": "[2]", "result": "significantly reduce"}, {"measurement": "protein level of p21", "setting": "[2]", "result": "significantly reduce"}, {"measurement": "protein level of p53", "setting": "[2]", "result": "significantly reduce"}, {"measurement": "protein level of p73", "setting": "[2]", "result": "significantly reduce"}]}
